Measured values as given in patent publication US7052705B2, “Anti-angiogenic peptides” (Regeneron Pharmaceuticals, Inc., priority 2001, dated 2006).
Several values for one entry are separate records, joined by “and”; a condition that tells them apart may be missing. Equal entries are not always repeated. Where two headings read alike, the source gives them in different places. Ends that are not written are not given here.

What was measured:
NP-1 [1] = molecular target: T1, NP-1 (Homo sapiens, UniProt O14786); assay: Whole cell binding assay: competition for 125I-VEGF165 in stable Balb/C 3T3 A31 cells overexpressing NP-1; conditions: for IC50: Balb/C 3T3 A31 cells, competition for 125I-VEGF165; for Relative affinity (IC50 peptide / IC50 VEGF165), NP-1: Stable Balb/c cells
T1 sequence (O14786 22-923): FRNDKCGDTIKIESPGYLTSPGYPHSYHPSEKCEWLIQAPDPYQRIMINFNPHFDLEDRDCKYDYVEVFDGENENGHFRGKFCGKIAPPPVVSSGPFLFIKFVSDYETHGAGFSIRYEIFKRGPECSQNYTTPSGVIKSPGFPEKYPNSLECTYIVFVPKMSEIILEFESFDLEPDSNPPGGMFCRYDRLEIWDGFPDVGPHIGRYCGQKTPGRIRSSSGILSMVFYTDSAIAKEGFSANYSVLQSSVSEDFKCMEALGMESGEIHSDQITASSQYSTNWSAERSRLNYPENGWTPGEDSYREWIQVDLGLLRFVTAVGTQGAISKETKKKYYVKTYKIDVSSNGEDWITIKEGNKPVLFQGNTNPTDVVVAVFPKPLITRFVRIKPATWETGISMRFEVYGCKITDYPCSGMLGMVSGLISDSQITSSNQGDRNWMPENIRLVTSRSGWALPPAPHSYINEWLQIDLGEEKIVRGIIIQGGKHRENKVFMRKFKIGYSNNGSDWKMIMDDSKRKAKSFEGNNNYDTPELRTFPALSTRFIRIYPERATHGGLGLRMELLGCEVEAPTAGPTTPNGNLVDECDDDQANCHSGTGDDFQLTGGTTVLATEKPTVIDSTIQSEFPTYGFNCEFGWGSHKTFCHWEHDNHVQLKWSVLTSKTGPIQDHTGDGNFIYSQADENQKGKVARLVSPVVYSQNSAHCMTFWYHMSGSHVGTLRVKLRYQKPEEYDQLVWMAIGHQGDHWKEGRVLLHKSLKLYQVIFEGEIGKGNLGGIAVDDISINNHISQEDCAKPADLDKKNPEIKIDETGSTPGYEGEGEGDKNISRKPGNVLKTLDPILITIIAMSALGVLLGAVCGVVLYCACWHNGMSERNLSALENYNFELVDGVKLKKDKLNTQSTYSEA
Procedure: (§1) Balb/C 3T3 A31 VEGFR-2, NP-1, and VEGFR-2/NP1 stable cells are created using the Nolan Lab Phoenix Retroviral system, previously described.
(§2) Virus containing the hNP-1 gene is generated according to the procedure outlined previously using the QMXE cells.
(§3) Clonal cell lines are obtained by subjecting the NP-1 infected cells to neomycin selection using Balb/C growth medium containing 1.5–2.0 mg/ml G418 (Gibco-BRL) for two weeks. Single colonies are obtained and clones are subjected to Western blot analysis to confirm stable expression of NP-1.
(§4) Cells are plated the day before experimentation at 200,000 cells per well in twelve well tissue culture plates (VWR) in 1 ml of growth medium specific for each cell type. On the day of experimentation, the cells were pre-equilibrated at 4° C. for 30 to 60 minutes in binding buffer (0.2% BSA, Sigma; 25 mM Hepes, Gibco; MEM, Gibco). […] The binding reaction is allowed to reach equilibrium for four hours at 4° C. with gentle agitation.
(§5) Unbound ligand is then removed by quickly washing three times with 5 ml ice cold BSA-free binding buffer (MEM, Gibco, 25 mM Hepes, Gibco). Cells are lysed by the addition of 250 μl of RIPS Buffer (previously described), and the lysed cells are transferred to 12×75 mm test tubes and counted using a gamma counter. Generation of competition curves and IC50 values are performed using the Prism software package (Graphpad Software Inc., San Diego, Calif.).

VEGFR-2/NP-1 [2] = assay: Whole cell binding assay: competition for 125I-VEGF165 in stable Balb/C 3T3 A31 cells overexpressing VEGFR-2 and NP-1; parameters: species or system human
Procedure: as §1, §2, §3, §4
as §5, with “Generation of competition curves and IC50 values are performed using the Prism software package (Graphpad Software Inc., San Diego, Calif.).” left out

VEGFR-2/NP-1 [3] = system: T2, VEGFR-2/NP-1; type: binding, human
T2 construct: In the COS-1 cells overexpressing the full-length VEGFR-2; the NP-1 cDNA used for these experiments would only produce the full-length receptor; expressed in transfected cells; host or cells: COS-1
Procedure: (§6) When co-expressing VEGFR-2 and NP-1, 5 μg of VEGFR-2 cDNA and 2 μg of NP-1 cDNA are used. When the receptors are expressed in isolation, for VEGFR-2, 5 μg of VEGFR-2 cDNA and 2 μg of mock vector cDNA are used.
(§7) After generation of the liposome/DNA solution, the cells are rinsed one time with 5 ml Optimem I, then replaced with another 5 ml of Optimem I containing the liposome/DNA solution. The cells are incubated for two to four hours at 37° C., 5% CO2, then 5 ml of COS-1 cell growth medium is applied and the transfection is allowed to proceed overnight. The following day, cells are trypsinized (0.2% trypsin, 1 mM EDTA, Gibco-BRL), and cells containing common transfectants are pooled. […] The cells are then used for corresponding VEGFR-2/NP-1 complex formation and peptide blocking studies.
as §4, §5

NP-1 [4] = molecular target: T1, NP-1; type: binding; parameters: the NP-1 cDNA used for these experiments would only produce the full-length receptor; expressed in transfected cells; host or cells: COS-1
Procedure: as §6, §7, §4, §5

COS-1 cells (Mock) = assay: Saturation analysis of 125I-VEGF165 binding, COS-1 Mock; conditions: COS-1 transient
Source text: To perform hNeuropilin-1 (hNP-1) and hVEGFR-2 complex formation and peptide blocking experiments, the hVEGFR-2 and hNP-1 cDNAs are cloned into the pJFE14 mammalian expression plasmid (Regeneron Pharmaceuticals) containing the SRα promoter. COS-1 cells are transiently transfected with pJFE14 (Regeneron Pharmaceuticals), hVEGFR-2 (Regeneron Pharmaceuticals), or hNP-1 (Procter & Gamble Pharmaceuticals) expression plasmids using the Lipofectamine-2000 system (Gibco-BRL). […] When co-expressing VEGFR-2 and NP-1, 5 μg of VEGFR-2 cDNA and 2 μg of NP-1 cDNA are used. When the receptors are expressed in isolation, for VEGFR-2, 5 μg of VEGFR-2 cDNA and 2 μg of mock vector cDNA are used.
as §5, with “Calif.). […]” for “Calif.).”
This possibility was evaluated by determining equilibrium binding Kd values in cells expressing VEGFR-2 alone, NP-1 alone, and cells co-expressing both receptors, using standard saturation analysis techniques as known to one skilled in the art.

[5] = system: Balb/c cells (Mock, endogenous NP-1); assay: Saturation analysis of 125I-VEGF165 binding, Balb/c Mock (pGBMGH); conditions: Balb/c stable
Source text: Pools of infected Balb/C 3T3 A31 cells expressing hVEGFR-2 or GFP alone (Mock) are selected two times by FACS sorting using the hVEGFR-2 specific monoclonal antibody J5F4A2 (Procter & Gamble Pharmaceuticals as described in J. Biol. Chem. 276(27):25520–25531 (2001), which is expressly incorporated by reference herein in its entirety, for the VEGFR-2 cells, or by GFP emission for the Mock cells. Clonal populations of VEGFR-2 are generated by subjecting the FACS sorted VEGFR-2 cell pool to limiting dilution. A clonal hVEGFR-2 cell line termed D7R2 is selected for experimental studies based on its high levels of hVEGFR-2 expression by Western blot analysis. The pool of the Mock GFP expressing cells, hereinafter referred to as pGBMGH, is not subjected to limiting dilutions and thus is not a clonal population.
as §5, with “Generation of competition curves and IC50 values are performed using the Prism software package (Graphpad Software Inc., San Diego, Calif.).” left out
This possibility was evaluated by determining equilibrium binding Kd values in cells expressing VEGFR-2 alone, NP-1 alone, and cells co-expressing both receptors, using standard saturation analysis techniques as known to one skilled in the art. […]

[6] = system: VEGF165 vascular growth response; assay: Mouse corneal pocket model; type: in vivo; parameters: key to Score #1 (subjective neovascular response score) / Score #2 (subjective neovascular response score) / Score #3 (subjective neovascular response score): subjective neovascular growth score, 0 to 6 scale; conditions: per animal, scale 0 to 6, pellet P6V8 4 μg and/or VEGF165 300 ng
Procedure: A 0.2 μl aliquot of this solution yielded a 4 μg dose. Human recombinant VEGF165 was purchased from R&D Systems (Minneapolis, Minn.), supplied in a lyophilized, carrier free form and reconstituted in the same water as the above peptide. A 0.2 μl aliquot of this solution yielded a 300 ng dose.
Male albino mice (Crl: CD-I (ICR) BR, VAF) from Charles River (Portage, N.C.), 20–24 grams were used. […] Compound adsorbed pellets were fabricated and implanted as described below. The treated eye was imaged on the day of implantation (day 0) and on days 4 and 7 following surgery. The growth response was subjectively graded on a scale from 0 to 6 by three independent graders blinded from the treatment grouping labels using the 3× printed image.
Polyvinyl alcohol (PVA) matrix material (Rippey, El Dorado Hills, Calif.) was cut into 1 cm×3 cm pieces and placed in a vibratome for sectioning on edge to produce 300 μm thick strips. The strips were individually sterilized by exposure to ethylene oxide. A strip was then cut under a dissecting microscope into approximately 300 μm cubes. The desired concentration of test compound or vehicle was adsorbed, sometimes utilizing a micro dessicant chamber. An HP auto sampler micro-syringe (Hamilton, P/N 7000.5) controlled the exact volume of the agent adsorbed onto the sponge. The sponge was then placed on a microscope slide prepared with a coating (20 μl spread over a 0.75 mm×1.5 mm area) of 12% hydron (Sigma, St. Louis, Mo.). The slide was protected in a clean petri dish and placed into a dessicator at 4° C. for a few hours or overnight. The dry, adsorbed sponges were mechanically flattened and overlaid with another aliquot of 12% hydron and again placed into a dessicator to cure the hydron coating. Fabrication of the adsorbed PVA sponge-hydron sandwich (referred to as a pellet) was done no more than 48 hours prior to implantation and the pellets were stored at 4° C. On the day of surgery and just prior to implantation, the pellet was trimmed so that the sponge remained encased by hydron (approximately 400 μm×400 μm×50 μm) and could be carefully removed from the slide.
Mice were anesthetized with 0.05 cc of Ketamine (140 mg/kg) and 0.03 cc Xylazine (17 mg/kg). A surgical plane of anesthesia was maintained by subsequent administration of half doses of the above compounds as needed. The whiskers on the animal's right side were trimmed down to ¼ of an inch. The right eye was bathed in an ophthalmic local anesthetic solution (Ophthaine, 0.5% tetracine hydrochloride) initially and throughout the procedure. The animal was placed on its side and the skin around the eye was gently retracted to expose the lateral and apical aspects of the cornea. The lateral limbic artery bifurcation was positioned horizontally. While stabilizing the eye against the ocular orbit, a vertical incision was made using a micro scalpel into the corneal tissue just lateral to the pupil. Care was taken to prevent accidental perforation of the anterior eye chamber. The incision depth was carefully deepened until a delicate and small lateral stab could be made (on axis with the lateral limbic artery bifurcation) with the micro scalpel into the middle of the corneal stroma. This lateral, intrastromal incision was enlarged by blunt dissection with very fine forceps until a pocket was formed from the vertical incision toward the limbus.
A hydron coated PVA sponge with adsorbed test compound (pellet) was prepared for implantation by carefully excising and removing it from the microscope slide. The pellet was introduced gently into the corneal pocket and advanced to within 1–2 mm of the limbus. The edges of the vertical corneal incision were approximated to encourage rapid healing. The imaging procedure (described below) was used to document the native limbic vascular architecture at the time of implantation. Post surgical recovery of the animal consisted of triple antibiotic ophthalmic ointment to prevent corneal drying, abrasion and infection. […]

VEGFR-2 = molecular target: T3, VEGFR-2 (Homo sapiens, UniProt P35968); type: binding
T3 construct: In the COS-1 cells overexpressing the full-length VEGFR-2; expressed in transfected cells; host or cells: COS-1
T3 sequence (P35968 20-1356): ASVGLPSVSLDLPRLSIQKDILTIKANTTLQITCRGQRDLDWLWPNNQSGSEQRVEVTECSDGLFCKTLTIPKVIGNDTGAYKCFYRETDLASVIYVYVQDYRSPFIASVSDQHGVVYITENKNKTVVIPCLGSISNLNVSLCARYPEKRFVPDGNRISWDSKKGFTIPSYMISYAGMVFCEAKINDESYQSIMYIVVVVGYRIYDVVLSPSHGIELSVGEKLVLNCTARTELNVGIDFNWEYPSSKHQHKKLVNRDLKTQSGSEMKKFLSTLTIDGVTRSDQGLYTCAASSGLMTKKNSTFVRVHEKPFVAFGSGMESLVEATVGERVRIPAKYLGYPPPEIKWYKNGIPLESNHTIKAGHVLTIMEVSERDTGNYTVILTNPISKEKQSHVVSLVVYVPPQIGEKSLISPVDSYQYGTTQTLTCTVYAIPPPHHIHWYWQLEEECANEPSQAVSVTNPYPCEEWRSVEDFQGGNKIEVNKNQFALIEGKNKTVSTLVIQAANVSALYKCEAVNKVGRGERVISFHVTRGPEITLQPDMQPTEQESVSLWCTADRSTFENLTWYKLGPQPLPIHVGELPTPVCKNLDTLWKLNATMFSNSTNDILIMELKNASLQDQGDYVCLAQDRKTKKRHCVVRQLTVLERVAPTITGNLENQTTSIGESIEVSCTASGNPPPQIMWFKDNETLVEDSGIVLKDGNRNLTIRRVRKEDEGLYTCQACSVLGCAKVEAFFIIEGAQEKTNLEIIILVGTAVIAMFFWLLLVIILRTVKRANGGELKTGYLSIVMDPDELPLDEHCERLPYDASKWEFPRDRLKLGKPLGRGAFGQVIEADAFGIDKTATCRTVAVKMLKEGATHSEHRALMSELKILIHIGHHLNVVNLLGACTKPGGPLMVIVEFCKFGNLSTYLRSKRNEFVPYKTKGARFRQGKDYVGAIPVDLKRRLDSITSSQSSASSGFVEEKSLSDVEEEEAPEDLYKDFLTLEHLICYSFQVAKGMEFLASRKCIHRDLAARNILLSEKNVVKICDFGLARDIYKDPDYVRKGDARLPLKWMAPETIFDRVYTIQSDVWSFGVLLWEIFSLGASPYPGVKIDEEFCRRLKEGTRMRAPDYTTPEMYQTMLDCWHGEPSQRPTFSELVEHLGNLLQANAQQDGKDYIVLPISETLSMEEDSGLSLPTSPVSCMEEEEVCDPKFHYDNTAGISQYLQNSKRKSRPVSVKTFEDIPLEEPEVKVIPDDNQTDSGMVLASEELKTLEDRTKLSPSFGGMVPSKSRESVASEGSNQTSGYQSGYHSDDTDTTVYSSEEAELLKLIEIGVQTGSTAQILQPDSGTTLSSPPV
Procedure: as §6, §7
Cells are plated the day before experimentation at 200,000 cells per well in twelve well tissue culture plates (VWR) in 1 ml of growth medium specific for each cell type. […]
as §5, with “Generation of competition curves and IC50 values are performed using the Prism software package (Graphpad Software Inc., San Diego, Calif.).” left out

Substance | IC50 (NP-1 [1]) [nM] | Relative affinity (IC50 peptide / IC50 VEGF165), NP-1 (NP-1 [1]) | Relative affinity (IC50 peptide / IC50 VEGF165), VEGFR-2/NP-1 (VEGFR-2/NP-1 [2]) | Relative Affinity to Lead Peptide (RALP), VEGFR-2/NP-1 (VEGFR-2/NP-1 [3]) | Relative Affinity to Lead Peptide (RALP), NP-1 (NP-1 [4]) | Relative Affinity to Lead Peptide (RALP), VEGFR-2 (VEGFR-2) | also measured
KGRGKRRREKQRPCDKPRR [Peptide P6V8-3N, KGR GKR RRE KQR P CDK PRR] | 254 | 1,607 | 6,928 |  |  |  | 
RRPKGRGKRRREAAAPSDKPRR [AS-4] | 17.8 | 112 | 3,856 | 4.2 | 0.45 |  | selectivity for cells expressing NP-1 alone versus cells co-expressing VEGFR-2 and NP-1 (NP-1 [4]; COS-1): about 100 fold
VEGF165: human recombinant VEGF165 (R&D Systems), vascular endothelial growth factor isoform 165 |  |  |  |  |  |  | Kd (COS-1 cells (Mock)): 1.11 nM; Log Kd ± SEM (COS-1 cells (Mock)): −8.95 ± 0.31; Kd [5]: 0.222 nM; Log Kd ± SEM [5]: −9.65 ± 0.13; Score #1 (subjective neovascular response score) ([6]; grader 1): 2 (2×) and 3 (3×) and 4 (2×) and 5; Score #2 (subjective neovascular response score) ([6]; grader 2): 2 (3×) and 4 (4×) and 5; Score #3 (subjective neovascular response score) ([6]; grader 3): 2 (3×) and 3 (2×) and 4 and 5 (2×)
H-RRPKGRGKRAAAKQRPSDKPRR-OH [AS-3, RRP KGR GKR AAA KQR PSD KPR R] |  |  |  |  | 0.55 | 4 | Relative Affinity to Lead Peptide (RALP), VEGFR-2/NP-1 (VEGFR-2/NP-1 [3]; AS series, lead peptide P6V8CS, COS-1, NC = no competition): complete loss of binding
H-RRPKGRGKRRREKQRAAAKPRR-OH [AS-4A] |  |  |  | 0.78 | 2.1 | 1.9 | 
